Test results reported in PMC9481563, “Structural insights into the pSer/pThr dependent regulation of the SHP2 tyrosine phosphatase in insulin and CD28 signaling” (Nature Communications, 2022).
Positions count from the first letter of the chain named.

Experiments:
Format in all cases: binding
Conditions in all cases: competitive FP titration vs CF-ppIRS1 100 nM, protein fixed; n = 3 technical replicates
[1] = target: T1, inactive SHP2 catalytic domain Flapmut (H426F) (Homo sapiens, UniProt Q06124, C459S/H426F); assay: Fluorescence polarization titrations, SHP2 Flapmut
T1 construct: SHP2 H425F (Flapmut); 219-528 + C459S; His6 (N); made in house; host or cells: E. coli BL21 (DE3)
T1 sequence (Q06124 219-528 H426F/C459S): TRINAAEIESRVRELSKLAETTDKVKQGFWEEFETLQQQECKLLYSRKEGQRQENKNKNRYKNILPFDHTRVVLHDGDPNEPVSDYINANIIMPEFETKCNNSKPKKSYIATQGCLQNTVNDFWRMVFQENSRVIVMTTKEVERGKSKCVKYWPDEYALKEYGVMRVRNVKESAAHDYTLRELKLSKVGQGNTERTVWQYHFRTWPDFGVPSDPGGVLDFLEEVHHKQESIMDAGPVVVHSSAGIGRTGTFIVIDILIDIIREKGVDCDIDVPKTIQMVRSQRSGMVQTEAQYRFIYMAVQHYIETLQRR
Text: (§1) The two SH2 domains of PI3KR1 (UniProt P27986; nSH2: 321−433 cSH2: 614–724) were cloned from HEK293T cDNA pool, and subsequently ligated into a modified pET vector encoding maltose binding protein (MBP) tag on the N-terminal and a hexa-His tag on the C-terminal end of the construct. Similarly, the catalytic, tyrosine phosphatase domains of PTPRε (P23469 first domain: 107–399) and PTP1B (P18031; 1–229) were cloned from a HEK293T cDNA pool, and inserted into a pBH4 vector encoding an N-terminal His6 tag (for the final binding experiments, an MBP-tagged version of PTPRε was employed). […] Surface mutants of SHP2 were constructed from the SHP2-C459S plasmid, using the QuickChange protocol. The D425A and H426A catalytic site mutants and all enzymatically active surface mutants were generated similarly, but from the plasmid encoding the wild-type catalytic domain of SHP2. Wild-type C-terminal FLAG-tagged human IRS1 was cloned between HindIII-NotI sites of pcDNA3.1(+) vector (#V79020 Invitrogen, Waltham MA USA). Ser/Ala mutant IRS1 was generated by replacing the region of S616/S636/S666/S736 positions with a cassette carrying S616A/S636A/S666A/S736A mutations. All constructs were validated by complete Sanger sequencing before protein expression and purification. The oligonucleotide sequences used are shown on Supplementary table 4.
(§2) Fluorescence polarization (FP) assays were performed as follows: In direct titration experiments, protein concentration was varied in an 1/2 or 2/3 dilution series (90 µl protein+ 45 µl mix), while concentration of the reporter peptide (CF-ppIRS1) was kept constant at 100 nM. In competitive titrations, the labelled CF-ppIRS1 peptide and protein were both fixed (at 50–80% saturation) and the unlabelled competitor peptide concentration was varied. Fluorescence polarization was always measured in triplicates, on black Corning low volume round bottom 384-well plates (with 10 ul volumes), using a BioTek Cytatation 5 reader, with the green fluorescent protein (GFP) cube filter set (ex: 485/20, em: 528/20, gain: 50, height: 7.5). Fluorescence polarization data was evaluated on Origin 2018. The dissociation constants (Kd) were determined by using the appropriate quadratic and cubic equations inserted as a user-defined function and applying nonlinear fit until convergence. The fitting formulae are shown at Supplementary note 1. Kd ratio distributions for Fig. 6 were calculated using a Monte-Carlo approach (Supplementary note 2).
(§3) Supplementary note 1. Curve fitting of fluorescence polarization (FP) measurements.
(§4) To evaluate polarization values from direct and competitive titrations, we used the following fitting formulae in Origin 2018, as detailed below.
(§5) Direct titration curves were fitted according to the following formula: […]
(§6) Where Imin is the minimal anisotropy, Imax is the (asymptotically estimated) maximal intensity. K0 is the starting concentration of the protein, while T0 is the (fixed) concentration of the labelled peptide and Kd is the dissociation constant.
(§7) Competitive titration curves were fitted with a different formula (In addition to those defined above, constants KdT KdB B0 T0 and D0 here refer to the Kd derived from the direct titration, the unknown Kd of the analyte, the labelled peptide concentration, the competitor peptide concentration as well as the protein concentration, respectively).
(§8) The ± sign refers to two different scenarios, depending on the sign of discriminant (KdT > KdB or […]). For unknown analytes, the choice of sign is not arbitrary, as the fitting will not converge unless the appropriate formula is chosen: […]
(§9) Where A, B and C correspond to the following expressions: […]

[2] = target: T2, inactive SHP2 catalytic domain Pocketless (K260E+R265S) (Homo sapiens, UniProt Q06124, C459S/K260E/R265S); assay: Fluorescence polarization titrations, SHP2 Pocketless
T2 construct: SHP2 K260E+R265S (Pocketless); 219-528 + C459S; His6 (N); made in house; host or cells: E. coli BL21 (DE3)
T2 sequence (Q06124 219-528 K260E/R265S/C459S): T1 sequence (Q06124 219-528 H426F/C459S) with K42E, R47S, F208H
Text: as §1, §2, §3, §4, §5, §6, §7, §8, §9

[3] = target: T3, inactive SHP2 catalytic domain Loopmut (K364E) (Homo sapiens, UniProt Q06124, C459S/K364E); assay: Fluorescence polarization titrations, SHP2 Loopmut
T3 construct: SHP2 K364E (Loopmut); 219-528 + C459S; His6 (N); made in house; host or cells: E. coli BL21 (DE3)
T3 sequence (Q06124 219-528 K364E/C459S): T1 sequence (Q06124 219-528 H426F/C459S) with K146E, F208H
Text: as §1, §2, §3, §4, §5, §6, §7, §8, §9

| Structure (SMILES) | Kd [1] [µM] | Kd [2] [µM] | Kd [3] [µM] | Kd (competitive titration) [3] |
| --- | --- | --- | --- | --- |
| CSCC[C@H](NC(=O)[C@H](Cc1ccc(OP(=O)(O)O)cc1)NC(=O)[C@H](CC(=O)O)NC(=O)[C@H](CO)NC(=O)[C@H](Cc1c[nH]cn1)NC(=O)[C@H](CC(C)C)NC(=O)[C@H](CC(C)C)NC(=O)[C@H](CCCNC(=N)N)NC(=O)[C@H](CO)NC(=O)[C@@H](N)CCCNC(=N)N)C(=O)N[C@@H](CC(N)=O)C(=O)N[C@@H](CCSC)C(=O)N[C@H](C(=O)N1CCC[C@H]1C(=O)N[C@@H](CCCNC(=N)N)C(=O)N[C@@H](CCCNC(=N)N)C(=O)O)[C@@H](C)O [p0CD28] | 63.7 ± 3.1 | 34.8 ± 2.25 | 20.5 ± 1.53 |  |
| CSCC[C@H](NC(=O)[C@@H]1CCCN1C(=O)[C@H](CCSC)NC(=O)[C@H](Cc1ccc(OP(=O)(O)O)cc1)NC(=O)[C@H](CC(=O)O)NC(=O)CNC(=O)[C@H](CO)NC(=O)CNC(=O)[C@H](CCCCN)NC(=O)[C@H](CCCNC(=N)N)NC(=O)CN)C(=O)N[C@@H](CO)C(=O)N1CCC[C@H]1C(=O)N[C@@H](CCCCN)C(=O)N[C@@H](CO)C(=O)O [p0IRS1] | 172 ± 4.89 | 191 ± 15.5 | 23.3 ± 0.9 | bound stronger |
| CC[C@H](C)[C@H](NC(=O)[C@H](CC(N)=O)NC(=O)[C@@H](NC(=O)[C@H](Cc1ccc(OP(=O)(O)O)cc1)NC(=O)[C@H](CCC(=O)O)NC(=O)CNC(=O)[C@@H]1CCCN1C(=O)[C@H](CO)NC(=O)[C@H](CCCCN)NC(=O)[C@@H]1CCCN1C(=O)[C@@H](N)CCC(=O)O)C(C)C)C(=O)N[C@@H](CCC(=O)O)C(=O)N[C@@H](Cc1ccccc1)C(=O)O [p0SRev-IRS1] | 6.05 ± 0.29 | 17.7 ± 2.13 | 7.73 ± 1.08 |  |
| CSCC[C@H](NC(=O)[C@H](Cc1ccc(OP(=O)(O)O)cc1)NC(=O)[C@H](CC(=O)O)NC(=O)[C@H](CO)NC(=O)[C@H](Cc1c[nH]cn1)NC(=O)[C@H](CC(C)C)NC(=O)[C@H](CC(C)C)NC(=O)[C@H](CCCNC(=N)N)NC(=O)[C@H](CO)NC(=O)[C@@H](N)CCCNC(=N)N)C(=O)N[C@@H](CC(N)=O)C(=O)N[C@@H](CCSC)C(=O)N[C@H](C(=O)N1CCC[C@H]1C(=O)N[C@@H](CCCNC(=N)N)C(=O)N[C@@H](CCCNC(=N)N)C(=O)O)[C@@H](C)OP(=O)(O)O [ppCD28] | 9.96 ± 0.47 | 5.63 ± 0.29 | 6.66 ± 0.38 |  |
| CSCC[C@H](NC(=O)[C@@H]1CCCN1C(=O)[C@H](CCSC)NC(=O)[C@H](Cc1ccc(OP(=O)(O)O)cc1)NC(=O)[C@H](CC(=O)O)NC(=O)CNC(=O)[C@H](CO)NC(=O)CNC(=O)[C@H](CCCCN)NC(=O)[C@H](CCCNC(=N)N)NC(=O)CN)C(=O)N[C@@H](COP(=O)(O)O)C(=O)N1CCC[C@H]1C(=O)N[C@@H](CCCCN)C(=O)N[C@@H](CO)C(=O)O [ppIRS1] | 3.89 ± 0.19 | 6.36 ± 0.28 | 3.01 ± 0.42 | bound stronger |
| CC[C@H](C)[C@H](NC(=O)[C@H](CC(N)=O)NC(=O)[C@@H](NC(=O)[C@H](Cc1ccc(OP(=O)(O)O)cc1)NC(=O)[C@H](CCC(=O)O)NC(=O)CNC(=O)[C@@H]1CCCN1C(=O)[C@H](COP(=O)(O)O)NC(=O)[C@H](CCCCN)NC(=O)[C@@H]1CCCN1C(=O)[C@@H](N)CCC(=O)O)C(C)C)C(=O)N[C@@H](CCC(=O)O)C(=O)N[C@@H](Cc1ccccc1)C(=O)O [ppSRev-IRS1] | 0.54 ± 0.03 | 1.91 ± 0.2 | 0.99 ± 0.07 |  |
